Source: patent US20070142295A1, “Thrombopoietic compounds” (AMGEN INC., priority 1998, published 2007)
Where two headings read alike, the source gives them in different places. Positions of bridges follow the written chain, without caps; N, C: chain ends. Residues, ends and D or L forms follow the SMILES beside them. No end group written: not given here. PEG = not defined here

Key:
c-Mp1 [1] = target: T1, c-Mp1 (Homo sapiens, UniProt P40238); details: cited from earlier work
T1 sequence (P40238 26-635): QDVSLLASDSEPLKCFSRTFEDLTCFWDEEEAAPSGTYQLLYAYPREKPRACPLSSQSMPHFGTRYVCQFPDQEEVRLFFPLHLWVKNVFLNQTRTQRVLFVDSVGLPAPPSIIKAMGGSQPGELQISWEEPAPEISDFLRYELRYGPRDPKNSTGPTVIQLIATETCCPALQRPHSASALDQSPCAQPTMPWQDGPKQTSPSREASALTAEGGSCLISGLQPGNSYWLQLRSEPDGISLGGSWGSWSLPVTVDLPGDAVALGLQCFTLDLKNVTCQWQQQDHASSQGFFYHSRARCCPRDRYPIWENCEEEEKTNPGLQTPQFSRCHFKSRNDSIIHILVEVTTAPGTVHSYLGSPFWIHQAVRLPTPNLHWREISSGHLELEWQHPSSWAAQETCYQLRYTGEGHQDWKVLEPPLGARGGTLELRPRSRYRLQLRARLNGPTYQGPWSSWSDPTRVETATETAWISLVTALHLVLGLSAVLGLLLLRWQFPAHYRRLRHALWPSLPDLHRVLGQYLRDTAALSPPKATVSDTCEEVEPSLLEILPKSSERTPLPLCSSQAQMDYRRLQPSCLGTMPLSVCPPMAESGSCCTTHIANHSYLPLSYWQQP

c-Mp1 [2] = target: T1, c-Mp1; details: cited from earlier work; remark: listed apart in the source
human mpl receptor = target: T2, human mpl receptor (Homo sapiens, UniProt P40238); test: TPO in vitro bioassay: mitogenic/cell-proliferation assay with IL-3 dependent murine 32D cells transfected with human mpl receptor; format: cell-based; details: cell proliferation assay
T2 construct: murine 32D cells transfected with the full-length c-Mp1; expressed in transfected cells; host or cells: IL-3 dependent clone of murine 32D cells
T2 sequence (P40238 26-635): T1 sequence (P40238 26-635)
Description: Bioactivity assay. The TPO in vitro bioassay is a mitogenic assay utilizing an IL-3 dependent clone of murine 32D cells that have been transfected with human mpl receptor. This assay is described in greater detail in WO 95/26746. Cells are maintained in MEM medium containing 10% Fetal Clone II and 1 ng/ml mIL-3. Prior to sample addition, cells are prepared by rinsing twice with growth medium lacking mIL-3. An extended twelve point TPO standard curve is prepared, ranging from 3333 to 39 pg/ml. Four dilutions, estimated to fall within the linear portion of the standard curve, (1000 to 125 pg/ml), are prepared for each sample and run in triplicate. A volume of 100 μl of each dilution of sample or standard is added to appropriate wells of a 96 well microtiter plate containing 10,000 cells/well. After forty-four hours at 37° C. and 10% CO2, MTS (a tetrazolium compound which is bioreduced by cells to a formazan) is added to each well. Approximately six hours later, the optical density is read on a plate reader at 490 nm. A dose response curve (log TPO concentration vs. O.D.—Background) is generated and linear regression analysis of points which fall in the linear portion of the standard curve is performed. Concentrations of unknown test samples are determined using the resulting linear equation and a correction for the dilution factor.
The resulting peptides are readily accessible by conventional solid phase peptide synthesis methods (Merrifiled, R. B., Journal of the American Chemical Society 85:2149 (1963)) with either Fmoc or t-Boc chemistry. […] This might be due to differences in the conditions used in the two assays. […] It is interesting to note that a wide range of length is tolerated by the linker. The optimal linker with the selected TMP monomers (SEQ ID NO: 1) apparently is composed of 8 glycines.

platelets = test: platelet production in normal mice, dose response with 7-day micro-osmotic pumps; format: in vivo
Description: Mice. Normal female BDF1 approximately 10-12 weeks of age.
Bleed schedule. Ten mice per group treated on day 0, two groups started 4 days apart for a total of 20 mice per group. Five mice bled at each time point, mice were bled a minimum of three times a week. Mice were anesthetized with isoflurane and a total volume of 140-160 μl of blood was obtained by puncture of the orbital sinus. Blood was counted on a Technicon HIE blood analyzer running software for murine blood. Parameters measured were white blood cells, red blood cells, hematocrit, hemoglobin, platelets, neutrophils.
Treatments. Mice were either injected subcutaneously for a bolus treatment or implanted with 7 day micro-osmotic pumps for continuous delivery. Subcutaneous injections were delivered in a volume of 0.2 ml. Osmotic pumps were inserted into a subcutaneous incision made in the skin between the scapulae of anesthetized mice. Compounds were diluted in PBS with 0.1% BSA. All experiments included one control group, labeled “carrier” that were treated with this diluent only. The concentration of the test articles in the pumps was adjusted so that the calibrated flow rate from the pumps gave the treatment levels indicated in the graphs.
Compounds. A dose titration of the compound was delivered to mice in 7 day micro-osmotic pumps. Mice were treated with various compounds at a single dose of 100 ug/kg in 7 day osmotic pumps. Some of the same compounds were then given to mice as a single bolus injection.

**Q.** Which IC50 (c-Mp1 [1]; read-out: binding affinity) does the source give for `CC[C@H](C)[C@H](N)C(=O)N[C@@H](CCC(=O)O)C(=O)NCC(=O)N1CCC[C@H]1C(=O)N[C@H](C(=O)N[C@@H](CC(C)C)C(=O)N[C@@H](CCCNC(=N)N)C(=O)N[C@@H](CCC(N)=O)C(=O)N[C@@H](Cc1c[nH]c2ccccc12)C(=O)N[C@@H](CC(C)C)C(=O)N[C@@H](C)C(=O)N[C@@H](C)C(=O)N[C@@H](CCCNC(=N)N)C(=O)N[C@@H](C)C(=O)NCCCC[C@H](NC(=O)CCNC(=O)[C@H](C)NC(=O)[C@H](CCCNC(=N)N)NC(=O)[C@H](C)NC(=O)[C@H](C)NC(=O)[C@H](CC(C)C)NC(=O)[C@H](Cc1c[nH]c2ccccc12)NC(=O)[C@H](CCC(N)=O)NC(=O)[C@H](CCCNC(=N)N)NC(=O)[C@H](CC(C)C)NC(=O)[C@@H](NC(=O)[C@@H]1CCCN1C(=O)CNC(=O)[C@H](CCC(=O)O)NC(=O)[C@@H](N)[C@@H](C)CC)[C@@H](C)O)C(N)=O)[C@@H](C)O` [TMP C-C dimer] here?
**A.** 0.5 nM

**Q.** And the EC50 (c-Mp1 [2])?
**A.** 0.1 nM

**Q.** For `CC[C@H](C)[C@H](N)C(=O)N[C@@H](CCC(=O)O)C(=O)NCC(=O)N1CCC[C@H]1C(=O)N[C@H](C(=O)N[C@@H](CC(C)C)C(=O)N[C@@H](CCCNC(=N)N)C(=O)N[C@@H](CCC(N)=O)C(=O)N[C@@H](CS)C(=O)N[C@@H](CC(C)C)C(=O)N[C@@H](C)C(=O)N[C@@H](C)C(=O)N[C@@H](CCCNC(=N)N)C(=O)N[C@@H](C)C(=O)NCC(=O)NCC(=O)NCC(=O)NCC(=O)NCC(=O)NCC(=O)NCC(=O)NCC(=O)N[C@H](C(=O)N[C@@H](CCC(=O)O)C(=O)NCC(=O)N1CCC[C@H]1C(=O)N[C@H](C(=O)N[C@@H](CC(C)C)C(=O)N[C@@H](CCCNC(=N)N)C(=O)N[C@@H](CCC(N)=O)C(=O)N[C@@H](CS)C(=O)N[C@@H](CC(C)C)C(=O)N[C@@H](C)C(=O)N[C@@H](C)C(=O)N[C@@H](CCCNC(=N)N)C(=O)N[C@@H](C)C(=O)O)[C@@H](C)O)[C@@H](C)CC)[C@@H](C)O` [Peptide 15, IEGPTLRQCLAARA-GGGGGGGG-IEGPTLRQCLAARA] (H-IEGPTLRQCLAARAGGGGGGGGIEGPTLRQCLAARA-OH; N-terminus assumed), which “in vitro bioactivity, in words” value (human mpl receptor) is on record?
**A.** inactive

**Q.** Which results are given for “IEGPTLRQWLAARAGPNGIEGPTLRQWLAARA-OH [Peptide 13, TMP-GPNG-TMP]”?
**A.** fold increase in potency as compared to the monomer (human mpl receptor): about 100 fold; fold less active than the GGGG-linked analog (human mpl receptor): > 10 fold

**Q.** With “IEGPTLRQALAARAGGGGGGGGIEGPTLRQALAARA-OH [Peptide 16, IEGPTLRQALAARA-GGGGGGGG-IEGPTLRQALAARA]” as the compound, how does the “in vitro bioactivity, in words” value (human mpl receptor) read?
**A.** inactive

**Q.** For `CC[C@H](C)[C@H](N)C(=O)N[C@@H](CCC(=O)O)C(=O)NCC(=O)N1CCC[C@H]1C(=O)N[C@H](C(=O)N[C@@H](CC(C)C)C(=O)N[C@@H](CCCNC(=N)N)C(=O)N[C@@H](CCC(N)=O)C(=O)N[C@H]1CSSC[C@@H](C(=O)N[C@@H](CC(C)C)C(=O)N[C@@H](C)C(=O)N[C@@H](C)C(=O)N[C@@H](CCCNC(=N)N)C(=O)N[C@@H](C)C(=O)O)NC(=O)[C@H](CCC(N)=O)NC(=O)[C@H](CCCNC(=N)N)NC(=O)[C@H](CC(C)C)NC(=O)[C@H]([C@@H](C)O)NC(=O)[C@@H]2CCCN2C(=O)CNC(=O)[C@H](CCC(=O)O)NC(=O)[C@H]([C@@H](C)CC)NC(=O)CNC(=O)CNC(=O)CNC(=O)CNC(=O)CNC(=O)CNC(=O)CNC(=O)CNC(=O)[C@H](C)NC(=O)[C@H](CCCNC(=N)N)NC(=O)[C@H](C)NC(=O)[C@H](C)NC(=O)[C@H](CC(C)C)NC1=O)[C@@H](C)O` [Peptide 14] (H-IEGPTLRQCLAARAGGGGGGGGIEGPTLRQCLAARA-OH; disulfide 9-31; N-terminus assumed), which “in vitro bioactivity, in words” value (human mpl receptor) is on record?
**A.** inactive

**Q.** For “IEGPTLRQWLAARAGGGNGSGGIEGPTLRQWLAARA-OH [Peptide 21, TMP-GGGNGSGG-TMP]”, which “in vitro bioactivity, in words” value (human mpl receptor) is on record?
**A.** activity comparable to that of the -(Gly)8-linked analog

**Q.** With “TMP-GGGK(PEG)GGGG-TMP (IEGPTLRQWLAARAGGGK(PEG)GGGGIEGPTLRQWLAARA; reading uncertain) [Peptide 19]” as the compound, how does the “in vitro bioactivity, in words” value (human mpl receptor) read?
**A.** higher in vitro bioactivity as compared to their unpegylated counterparts

**Q.** Which results are given for “TMP-GGGC(PEG)GGGG-TMP (IEGPTLRQWLAARAGGGC(PEG)GGGGIEGPTLRQWLAARA; reading uncertain) [Peptide 20]”?
**A.** in vitro bioactivity, in words (human mpl receptor): higher in vitro bioactivity as compared to their unpegylated counterparts; activity compared with unpegylated rHu-MGDF (platelets; 10 μg/kg/day vs 100 μg/kg/day unpegylated rHu-MGDF, same experiment): about equally active; percent of maximal activity (platelets; 10 μg/kg/day, 7-day micro-osmotic pumps): about 50%; dose at which the maximum effect was seen (platelets; 7-day micro-osmotic pumps, data not shown): 100 µg/kg/day

**Q.** With “IEGPTLRQWLAARA-OH [TMP monomer, IEGPTLRQWLAARA]” as the compound, how does the IC50 (c-Mp1 [1]; read-out: IC50) read?
**A.** 2 nM

**Q.** And the EC50 (c-Mp1 [2])?
**A.** 400 nM
